The results in this text go back to patent publication US8877744B2, “1,4-Oxazepines as BACE1 and/or BACE2 inhibitors” (Hoffmann-La Roche Inc., priority 2011, dated 2014).

Usually IC50 stands for the point on the concentration scale where inhibition reaches its midpoint. The low end stands for greater potency in that assay, the high end for weaker potency in that assay.

SMILES strings stand for the structures. Counter-ions that a name gives are not always drawn.

This assay deals with T1, BACE1 (Homo sapiens, UniProt P56817).
T1 construct: endogenous in cells; host or cells: HEK293 stably transfected with human APP695 wt
T1 sequence (P56817 46-501): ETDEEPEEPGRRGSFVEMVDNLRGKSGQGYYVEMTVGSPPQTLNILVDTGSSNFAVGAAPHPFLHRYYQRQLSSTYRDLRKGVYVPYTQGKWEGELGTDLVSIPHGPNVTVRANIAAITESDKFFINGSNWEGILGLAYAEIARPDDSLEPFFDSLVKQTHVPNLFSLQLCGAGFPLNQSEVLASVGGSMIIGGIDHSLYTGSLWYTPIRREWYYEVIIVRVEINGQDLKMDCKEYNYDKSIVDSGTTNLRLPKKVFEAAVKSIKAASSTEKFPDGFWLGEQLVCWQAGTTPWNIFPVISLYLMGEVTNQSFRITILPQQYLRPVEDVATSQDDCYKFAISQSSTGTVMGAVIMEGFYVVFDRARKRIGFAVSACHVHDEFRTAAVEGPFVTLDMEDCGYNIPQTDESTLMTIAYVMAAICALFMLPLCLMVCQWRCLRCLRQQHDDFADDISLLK
Kind of assay: Cellular Aβ-lowering assay b): HEK293 APP Abeta 40 AlphaLISA Assay. It is filed as cell-based. The note with it: assay b): HEK293 APP cells, Aβ 40 in supernatant by AlphaLISA, 18-20 hrs incubation. The method, then: b) HEK293 APP: Abeta 40 AlphaLISA Assay
The cells were seeded in 96 well Microtiter plates in cell culture medium (Iscove's, plus 10% (v/v) fetal bovine serum, penicillin/streptomycin) to about 80% confluency and the compounds were added at a 3× concentration in ⅓ volume of culture medium (final DMSO concentration was kept at 1% v/v). After 18-20 hrs incubation at 37° C. and 5% CO2 in a humidified incubator, the culture supernatants were harvested for the determination of Aβ 40 concentrations using Perkin-Elmer Human Amyloid beta 1-40 (high specificity) Kit (Cat#AL275C).
In a Perkin-Elmer White Optiplate-384 (Cat#6007290), […] culture supernatants were combined with 2 μl of a 10X AlphaLISA Anti-hAβ Acceptor beads+Biotinylated Antibody Anti-Aβ 1-40 Mix (50 μg/mL/5 nM). After 1 hour room temperature incubation, 16 μl of a 1.25× preparation of Streptavidin (SA) Donor beads (25 μg/mL) were added and incubated for 30 minutes in the Dark. Light Emission at 615 nm was then recorded using EnVision-Alpha Reader. Levels of Aβ 40 in the culture supernatants were calculated as percentage of maximum signal (cells treated with 1% DMSO without inhibitor). The IC50 values were calculated using the Excel XLfit software.
(In general: Bead proximity is the source of the signal in Alpha formats.)
Take `CC1(C)OCC(N)=N[C@](C)(c2cc(-c3cc(F)cc(Cl)c3)ccc2F)C1(F)F` [Example 11, (R)-5-(5′-Chloro-4,3′-difluoro-biphenyl-3-yl)-6,6-difluoro-5,7,7-trimethyl-2,5,6,7-tetrahydro-[1,4]oxazepin-3-ylamine hydrochloride]: the 50% inhibitory concentration (IC50) was 0.51 µM.

On to `CC(C)(C)COS(=O)(=O)c1cccc(-c2ccc(F)c([C@@]3(C)N=C(N)COC(C)(C)C3(F)F)c2)c1` [Example 12, 3′-((R)-3-Amino-6,6-difluoro-5,7,7-trimethyl-2,5,6,7-tetrahydro-[1,4]oxazepin-5-yl)-4′-fluoro-biphenyl-3-sulfonic acid 2,2-dimethyl-propyl ester], for which the IC50 was 5.18 µM.

The compound `CC(C)(C)NS(=O)(=O)c1cccc(-c2ccc(F)c([C@@]3(C)N=C(N)COC(C)(C)C3(F)F)c2)c1` [Example 15, 3′-((R)-3-Amino-6,6-difluoro-5,7,7-trimethyl-2,5,6,7-tetrahydro-[1,4]oxazepin-5-yl)-4′-fluoro-biphenyl-3-sulfonic acid tert-butylamide] returned an IC50 of 4 µM.

In the case of `CC(C)(C)NS(=O)(=O)c1cncc(-c2ccc(F)c([C@@]3(C)N=C(N)COC(C)(C)C3(F)F)c2)c1` [Example 16, 5-[3-((R)-3-Amino-6,6-difluoro-5,7,7-trimethyl-2,5,6,7-tetrahydro-[1,4]oxazepin-5-yl)-4-fluoro-phenyl]-pyridine-3-sulfonic acid tert-butylamide], the IC50 turned out to be 1.55 µM.

For `CC1(C)OCC(N)=N[C@](C)(c2cc(-c3ccc(C#N)cc3)ccc2F)C1(F)F` [Example 20, 3′-((R)-3-Amino-6,6-difluoro-5,7,7-trimethyl-2,5,6,7-tetrahydro-[1,4]oxazepin-5-yl)-4′-fluoro-biphenyl-4-carbonitrile], the IC50 was 0.71 µM.

The compound `CC1(C)OCC(N)=N[C@](C)(c2cc(-c3nc4ccc(Cl)cc4s3)ccc2F)C1(F)F` [Example 21, (R)-5-[5-(6-Chloro-benzothiazol-2-yl)-2-fluoro-phenyl]-6,6-difluoro-5,7,7-trimethyl-2,5,6,7-tetrahydro-[1,4]oxazepin-3-ylamine hydrochloride] returned an IC50 of 7.43 µM.

`CC1(C)OCC(N)=N[C@](C)(c2cc(-c3cn(-c4ccccn4)cn3)ccc2F)C1(F)F` [Example 22, (R)-6,6-Difluoro-5-[2-fluoro-5-(1-pyridin-2-yl-1H-imidazol-4-yl)-phenyl]-5,7,7-trimethyl-2,5,6,7-tetrahydro-[1,4]oxazepin-3-ylamine] displayed an IC50 of 0.2 µM.

On to `CC1(C)OCC(N)=N[C@](C)(c2cc(-c3cn(-c4ccc(C(F)(F)F)cn4)cn3)ccc2F)C1(F)F` [Example 23, (R)-6,6-Difluoro-5-{2-fluoro-5-[1-(5-trifluoromethyl-pyridin-2-yl)-1H-imidazol-4-yl]-phenyl}-5,7,7-trimethyl-2,5,6,7-tetrahydro-[1,4]oxazepin-3-ylamine], for which the IC50 was found to be 0.22 µM.

As to `CC1(C)OCC(N)=N[C@](C)(c2cc(C#Cc3cccc(Cl)c3)c(F)cc2F)C1(F)F` [Example 24, (R)-5-[5-(3-Chloro-phenylethynyl)-2,4-difluoro-phenyl]-6,6-difluoro-5,7,7-trimethyl-2,5,6,7-tetrahydro-[1,4]oxazepin-3-ylamine], 1.27 µM corresponded to half-maximal inhibition (IC50).

As to `CC1(C)OCC(N)=N[C@](C)(c2cc(-c3cnn(-c4ccc(F)cc4)c3)c(F)cc2F)C1(F)F` [Example 29, (R)-6,6-Difluoro-5-{2,4-difluoro-5-[1-(4-fluoro-phenyl)-1H-pyrazol-4-yl]-phenyl}-5,7,7-trimethyl-2,5,6,7-tetrahydro-[1,4]oxazepin-3-ylamine], the IC50 was 0.94 µM.

As for `COc1ncc(-c2cc([C@@]3(C)N=C(N)COC(C)(C)C3(F)F)c(F)cc2F)cn1` [Example 30, (R)-5-[2,4-Difluoro-5-(2-methoxy-pyrimidin-5-yl)-phenyl]-6,6-difluoro-5,7,7-trimethyl-2,5,6,7-tetrahydro-[1,4]oxazepin-3-ylamine formate], the IC50 came out at 0.075 µM.

As for `CC1(C)OCC(N)=N[C@](C)(c2cc(-c3nc4ccc(Cl)cc4o3)c(F)cc2F)C1(F)F` [Example 31, (R)-5-[5-(6-Chloro-benzooxazol-2-yl)-2,4-difluoro-phenyl]-6,6-difluoro-5,7,7-trimethyl-2,5,6,7-tetrahydro-[1,4]oxazepin-3-ylamine], the midpoint of inhibition, the IC50, lay at 0.18 µM.

For the compound `CC1(C)OCC(N)=N[C@](C)(c2cc(-c3ncc(Cl)cn3)c(F)cc2F)C1(F)F` [Example 32, (R)-5-[5-(5-Chloro-pyrimidin-2-yl)-2,4-difluoro-phenyl]-6,6-difluoro-5,7,7-trimethyl-2,5,6,7-tetrahydro-[1,4]oxazepin-3-ylamine], half-maximal inhibition (IC50) required 0.5 µM.

As for `CC1(C)OCC(N)=N[C@](C)(c2cc(C#Cc3ccc(C#N)cn3)ccc2F)C1(F)F` [Example 33, 6-[3-((R)-3-Amino-6,6-difluoro-5,7,7-trimethyl-2,5,6,7-tetrahydro-[1,4]oxazepin-5-yl)-4-fluoro-phenylethynyl]-nicotinonitrile], it took 0.003 µM to reach half-maximal inhibition (IC50).

With `CC1(C)OCC(N)=N[C@](C)(c2cc(C#Cc3ncc(Cl)cn3)ccc2F)C1(F)F` [Example 34, (R)-5-[5-(5-Chloro-pyrimidin-2-ylethynyl)-2-fluoro-phenyl]-6,6-difluoro-5,7,7-trimethyl-2,5,6,7-tetrahydro-[1,4]oxazepin-3-ylamine], the IC50 turned out to be 0.013 µM.

Consider `CC1(C)OCC(N)=N[C@](C)(c2cc(C#Cc3ccnc(Cl)c3)ccc2F)C1(F)F` [Example 35, (R)-5-[5-(2-Chloro-pyridin-4-ylethynyl)-2-fluoro-phenyl]-6,6-difluoro-5,7,7-trimethyl-2,5,6,7-tetrahydro-[1,4]oxazepin-3-ylamine], for which the IC50 is 0.079 µM.

In turn, `CC1(C)OCC(N)=N[C@](C)(c2cc(C#Cc3cc(C#N)ccn3)ccc2F)C1(F)F` [Example 36, 2-[3-((R)-3-Amino-6,6-difluoro-5,7,7-trimethyl-2,5,6,7-tetrahydro-[1,4]oxazepin-5-yl)-4-fluoro-phenylethynyl]-isonicotinonitrile] gave a 50% inhibitory concentration (IC50) of 0.115 µM.

For `CC1(C)OCC(N)=N[C@](C)(c2cc(C#Cc3ccc(Cl)nn3)ccc2F)C1(F)F` [Example 37, (R)-5-[5-(6-Chloro-pyridazin-3-ylethynyl)-2-fluoro-phenyl]-6,6-difluoro-5,7,7-trimethyl-2,5,6,7-tetrahydro-[1,4]oxazepin-3-ylamine], the IC50 was found to be 0.145 µM.

`CC1(C)OCC(N)=N[C@](C)(c2cc(C#Cc3cncc(Cl)c3)ccc2F)C1(F)F` [Example 38, (R)-5-[5-(5-Chloro-pyridin-3-ylethynyl)-2-fluoro-phenyl]-6,6-difluoro-5,7,7-trimethyl-2,5,6,7-tetrahydro-[1,4]oxazepin-3-ylamine] had an IC50 of 0.152 µM.

`CC1(C)OCC(N)=N[C@](C)(c2cc(C#Cc3ccccn3)ccc2F)C1(F)F` [Example 39, (R)-6,6-Difluoro-5-(2-fluoro-5-pyridin-2-ylethynyl-phenyl)-5,7,7-trimethyl-2,5,6,7-tetrahydro-[1,4]oxazepin-3-ylamine] came in with an IC50 of 0.36 µM.

As to `COc1cnc(C#Cc2ccc(F)c([C@@]3(C)N=C(N)COC(C)(C)C3(F)F)c2)cn1` [Example 40, (R)-6,6-Difluoro-5-[2-fluoro-5-(5-methoxy-pyrazin-2-ylethynyl)-phenyl]-5,7,7-trimethyl-2,5,6,7-tetrahydro-[1,4]oxazepin-3-ylamine], inhibition was half-maximal at 0.48 µM (IC50).
